What was measured:
linear DNA = assay: Binding assay with a linear DNA; details: in a certain period of time
supercoiled plasmid DNA = assay: Mixing with supercoiled plasmid DNA, electrophoresis; type: binding; details: electrophoresis after a period of time
[1] = test system: supercoiled plasmid (pcDNA) with or without T4 GP41 DNA helicase; assay: DNA binding test involving helicase (gel electrophoresis); type: biochemical; details: Test 1 vs Test 4; 0.1 mmol/L, 1 hour, 37° C.
From the text: In this experiment, the effect of a helicase on carboplatin 4.0 was verified by a DNA binding test involved by the helicase, including: using the supercoiled and linear plasmid DNA (Hr. pcDNA, which can be extracted in a conventional manner) as a template, changing the DNA conformation through reactions by combining with different platinum-based anticancer drugs, and then distinguishing different platinum drugs by differences in gel electrophoretograms. […]
The following samples (test numbers 1-5 and M) were analyzed under the above experimental conditions, and the addition of pcDNA, drugs, and helicases in each sample was shown as follows: • Test 1: pcDNA+Carboplatin+T4 • Test 2: pcDNA+Carboplatin 4.0+T4 • Test 3: pcDNA+Carboplatin 4.0 • Test 4: pcDNA+Carboplatin • Test 5: pcDNA Test M: Marker (Reference Standard)

[2] = Cytotoxicity experiments for antiviral application; type: cell-based

N.N.O=C([O-])C1(C(=O)[O-])CCC1.[Pt+2] [carboplatin]
cross-linking with linear DNA (linear DNA): quickly forms a cross-linked adduct with DNA | crosslinking with supercoiled plasmid DNA (supercoiled plasmid DNA): crosslinks with the supercoiled plasmid DNA to form a adduct | effect of the helicase on DNA binding of the drug [1]: no obvious effect | cytotoxicity evaluation for application in an antiviral aspect [2]: hinders its application in the antiviral aspect

— patent US12564569B2, “Carboplatin complex and pharmaceutical preparation thereof” (ADVANCHL BIO[…] CENTER (SHANGHAI), priority 2019, dated 2026)
